How the values were obtained:
[1] = tested on: BT-549 breast cancer cells; settings: BT-549 cells with amplified centrosomes; cited from earlier work
KIFC1 = KIFC1 (Homo sapiens, UniProt Q9BW19); settings: ATP-competitive and MT-noncompetitive; cited from earlier work
ZR-75-30 cells [2] = test: Induction of extra centrosomes and markers in ZR-75-30 cells by aphidicolin; type: cell-based
Method: Next, centrosome amplification was evaluated to determine the extent to which it directly and independently impacts the migration potential of a mildly aggressive cell line, ZR-75-30. […] In particular, it was of interest to evaluate whether generation of extra centrosomes (by genetic and pharmacological means) impacts migration and invasion kinetics by experimentally inducing centrosome amplification in these cells by aphidicolin treatment (5 μg/ml for 24 h).
Upon treatment with aphidicolin, centrosome amplification was confirmed by immunofluorescence staining for γ-tubulin (green) (data not shown) and changes in γ-tubulin and centrin levels detectable by Western blot analysis.
Accordingly, these cells can be pharmacologically manipulated with aphidicolin to generate extra centrosomes. […] Following aphidicolin wash-out, cells were stained using anti-centrin-2 antibodies to verify extra centrosomes by immunofluorescence confocal microscopy. About ˜60% ZR-75-30 cells generated extra centrosomes (6-8 per cell) and were evaluated for their sensitivity to the three drugs, griseofulvin, bromonoscapine, and PJ34, and compared with parent ZR-75-30 cells with normal centrosomes.

ZR-75-30 cells [3] = test: Wound healing assay, ZR-75-30 cells; type: cell-based; settings: aphidicolin-treated cells; control 40 h
Method: (§1) To assess the migratory capacity of aphidicolin treated cells (˜60% cells harboring extra centrosomes) as compared to control cells, a a classical wound healing assay was performed.

ZR-75-30 cells [4] = test: Boyden chamber invasion assay, ZR-75-30 cells; type: cell-based; settings: aphidicolin-treated cells
Method: Trajectories of 10 cells each were captured over 18 h with 108 images per movie (6 frames/h). Data were analyzed using Volocity3.0 software (Improvision, Coventry, UK), whereby average net displacement, displacement rate and velocity measurements were generated for the identified cell tracks with respect to cell centroids. Quantitation of net displacement (Panel A), displacement rate (Panel B) and track velocity (Panel C) for cells with 1 and >2 centrosomes are shown as bar graphs. […] Panel E depicts a bar graph showing quantitation of migration rate of treated and untreated ZR-75-30 cells in a wound healing assay. Panel F depicts a bar graph showing the number of migrated cells in a Boyden chamber assay performed with aphidicolin-treated (APD) and untreated (C) ZR-75-30 cells.
as §1

[5] = tested on: MDA-MB-231 breast cancer cells; test: Spindle multipolarity and cell death, MDA-MB-231 cells; type: cell-based, human; settings: 18 h, 10 μM
Method: To investigate a possible role for centrosome declustering drugs (such as brominated noscapines) to induce high-grade spindle multipolarity leading to cell death during mitosis, MDA-MB-231 breast cancer cells were treated with brominated noscapine. “Scattering” of amplified centrosomes in MDA-MB-231 breast cancer cells upon treatment with brominated noscapine was observed (data not shown). […] Based upon this metaphasic occurrence of cell death, this caspase-mediated cellular demise reflects a “metaphase catastrophe”.

[6] = tested on: MCF-10A near normal breast epithelial cells; test: Spindle multipolarity and cell death, MCF-10A cells; type: cell-based; settings: same concentration (10 μM)

KIFC1, sequence (Q9BW19 whole entry): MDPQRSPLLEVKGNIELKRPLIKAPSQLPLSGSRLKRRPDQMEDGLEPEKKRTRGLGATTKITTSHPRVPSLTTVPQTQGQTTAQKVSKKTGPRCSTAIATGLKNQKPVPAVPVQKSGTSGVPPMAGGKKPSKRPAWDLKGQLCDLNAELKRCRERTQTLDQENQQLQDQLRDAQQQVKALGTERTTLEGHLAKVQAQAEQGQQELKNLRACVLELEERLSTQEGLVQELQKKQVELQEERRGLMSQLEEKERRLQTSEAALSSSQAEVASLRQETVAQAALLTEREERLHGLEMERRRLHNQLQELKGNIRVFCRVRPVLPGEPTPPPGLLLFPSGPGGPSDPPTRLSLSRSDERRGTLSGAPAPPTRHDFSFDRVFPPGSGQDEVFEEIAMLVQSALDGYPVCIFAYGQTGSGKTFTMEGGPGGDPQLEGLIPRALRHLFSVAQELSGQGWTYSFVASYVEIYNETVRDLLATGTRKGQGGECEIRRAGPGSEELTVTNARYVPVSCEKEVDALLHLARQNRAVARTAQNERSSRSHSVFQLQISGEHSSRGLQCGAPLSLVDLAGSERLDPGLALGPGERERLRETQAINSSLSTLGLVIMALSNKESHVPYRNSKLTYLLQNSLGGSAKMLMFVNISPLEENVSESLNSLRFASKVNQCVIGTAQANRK
KIFC1, sequence (P68363 whole entry partner): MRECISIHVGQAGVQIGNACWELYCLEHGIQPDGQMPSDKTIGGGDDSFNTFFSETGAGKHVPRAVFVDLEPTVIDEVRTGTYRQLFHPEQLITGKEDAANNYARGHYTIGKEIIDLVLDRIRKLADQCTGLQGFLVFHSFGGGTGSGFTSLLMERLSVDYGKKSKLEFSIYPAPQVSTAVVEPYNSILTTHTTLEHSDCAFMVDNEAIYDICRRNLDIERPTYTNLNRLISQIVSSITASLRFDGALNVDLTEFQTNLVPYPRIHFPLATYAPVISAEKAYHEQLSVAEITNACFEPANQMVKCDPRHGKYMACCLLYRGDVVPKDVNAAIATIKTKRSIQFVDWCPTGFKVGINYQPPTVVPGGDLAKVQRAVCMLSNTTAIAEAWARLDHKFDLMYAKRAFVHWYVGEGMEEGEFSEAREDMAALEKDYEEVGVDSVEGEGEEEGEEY
KIFC1, sequence (Q9BVA1 whole entry partner): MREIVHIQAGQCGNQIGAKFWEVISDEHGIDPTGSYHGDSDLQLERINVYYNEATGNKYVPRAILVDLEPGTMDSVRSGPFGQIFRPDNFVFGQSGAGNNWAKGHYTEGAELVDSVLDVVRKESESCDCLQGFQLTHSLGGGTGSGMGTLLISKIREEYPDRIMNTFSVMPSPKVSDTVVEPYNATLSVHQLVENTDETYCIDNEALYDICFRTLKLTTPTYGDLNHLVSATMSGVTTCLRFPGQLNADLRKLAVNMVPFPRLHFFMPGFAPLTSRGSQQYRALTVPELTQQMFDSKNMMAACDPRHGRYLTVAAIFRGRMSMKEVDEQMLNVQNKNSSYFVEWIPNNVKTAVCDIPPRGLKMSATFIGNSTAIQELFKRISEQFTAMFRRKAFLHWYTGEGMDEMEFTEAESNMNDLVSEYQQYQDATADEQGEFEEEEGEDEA

CCCc1cc(C(=O)N[C@H](Cc2ccc(-c3cccc(OC(F)(F)F)c3)nc2)C(=O)N[C@@H]2CCNC2)sc1C [AZ82]
centrosome declustering [1]: causes centrosome declustering
Ki (KIFC1): 43 nM

C[C@@]1(CO)[C@H](O)CC[C@@]2(C)[C@H]1CC[C@H]1C[C@@H]3C[C@@]12CC[C@]3(O)CO [aphidicolin]
cells harboring extra centrosomes (ZR-75-30 cells [2]; 5 μg/ml for 24 h): ~60%
extra centrosomes per cell (ZR-75-30 cells [2]; 24 h treatment, after wash-out): 6-8 per cell
vimentin levels (immunoblot) (ZR-75-30 cells [2]; following aphidicolin treatment): significant increase in vimentin levels
time to fill the scratch wound (ZR-75-30 cells [3]): 18 h
invasion capacity (ZR-75-30 cells [4]): increase in invasion capacity

brominated noscapine
spindle phenotype and cell death [5]: highly aberrant multipolar spindles that succumb to cell death
spindle multipolarity and cell death [6]: did not exhibit any multipolarity or cell death

From patent US10242153B2, “Method for determining the risk profile of neoplastic tissue” (NOVAZOI THERANOSTICS, priority 2014, dated 2019)
